Measurements published in patent US20020106348A1, “Cancer therapeutics involving the administration of 2-methoxyestradiol and an agent that increases intracellular superoxide anion” (priority 2000, published 2002).
Counter-ions that a name gives are not always drawn. Like-named read-outs stand apart in the source and are kept apart here.

What was measured:
[1] = cited from earlier work; for elimination half-life: intravenous
CuZnSOD = experiment: Inhibition of CuZnSOD by estrogen derivatives; format: biochemical; details: FIG. 20
HL-60 = experiment: Apoptosis / nucleosomal DNA fragmentation in HL-60 cells; format: cell-based, human; details: for DNA fragmentation (apoptosis) in HL-60 cells: estrogen derivatives, FIG. 20; for effect on 2-ME-induced apoptosis: HL-60, 1 μM 2-ME plus antioxidant
c-myc protein = c-myc protein expression in B CLL cells; format: cell-based, human; details: Rituxan alone
CLL cells [2] = details: for protection from toxic effect of 2-ME: antioxidant added to 2-ME-treated CLL cells
CLL cells [3] = experiment: Cellular O2^- by hydroethidine flow cytometry, CLL cells; format: cell-based, human; details: addition of NAC to 2-ME-treated CLL cells
Experimental: The method using hydroethidine to detect O2^− in tissue sections was adapted for quantitation of intracellular O2^− by flow cytometry analysis. This assay is based on the unique chemical properties of hydroethidine, a weak blue fluorescent dye which is selectively converted by O2^− to ethidium with a bright red fluorescence. The control and drug-treated cells (1.5×10^6/sample) were incubated with hydroethidine (20 ng/ml) for 60 min, washed twice with 3 ml PBS, resuspended in 2 ml PBS, and then analyzed within 1 h by flow cytometry, using the red laser channel.

[4] = system: leukemia cells from a CML (chronic myelogenous leukemia) patient in relapsed blast crisis; experiment: Induction of apoptosis in primary leukemia cells from a CML patient; format: cell-based, human; details: in vitro
HL-60 cells = experiment: Cellular O2^- by flow cytometry, HL-60 cells; format: cell-based, human; details: 0.25 μM
[5] = target: NADH:ubiquinone oxidoreductase; phorbol ester-induced ornithine decarboxylase (ODC); details: Fang et al, 1998; read-out: IC50 values, NADH:ubiquinone oxidoreductase inhibition / blocking ODC induction; cited from earlier work

## COc1cccc2c1C(=O)c1c(O)c3c(c(O)c1C2=O)C[C@@](O)([C@H](C)O)C[C@@H]3O[C@H]1C[C@H](N)[C@H](O)[C@H](C)O1 [daunorubicinol]
[1]
  elimination half-life: about 27 hr

## COc1cc2c(cc1O)CC[C@@H]1[C@@H]2CC[C@]2(C)C(=O)CC[C@@H]12 [2-methoxyestrone]
CuZnSOD
  inhibition of SOD activity: substantially inhibited SOD activity
HL-60
  DNA fragmentation (apoptosis) in HL-60 cells: induced DNA fragmentation

## C[C@]12CC[C@@H]3c4cc(O)c(O)cc4CC[C@H]3[C@@H]1CC[C@@H]2O [2-hydroxyestradiol]
CuZnSOD
  inhibition of SOD activity: substantially inhibited SOD activity
HL-60
  DNA fragmentation (apoptosis) in HL-60 cells: induced DNA fragmentation

## COc1cccc2c1C(=O)c1c(O)c3c(c(O)c1C2=O)C[C@@](O)(C(C)=O)C[C@@H]3O[C@H]1C[C@H](N)[C@H](O)[C@H](C)O1 [Daunorubicin, 5,12-Naphthacenedione, (8S-cis)-8-acetyl-10-[(3-amino-2,3,6-trideoxy-α-L-lyxo-hexanopyranosyl)oxy]-7,8,9,10-tetrahydro-6,8,11-trihydroxy-10-methoxy-, hydrochloride]
[1]; in vivo
  secreted into the bile: ~40%
[1]
  elimination half-life: about 19 hr

## Rituxan: antibody specific for CD20 antigen on B lymphocyte
c-myc protein
  c-myc protein expression: increased expression of c-myc protein
CLL cells [2]; Rituxan alone, various concentrations
  killing of CLL cells: did not result in any significant killing
CLL cells [2]; cells sensitive or resistant to 2-ME
  enhancement of 2-ME activity: did not significantly enhance the activity of 2-ME

## C[C@]12CC[C@@H]3c4ccc(O)cc4CC[C@H]3[C@@H]1CC[C@@H]2O [17β-estradiol]
CuZnSOD
  inhibition of SOD activity: minimal activity against SOD
HL-60
  DNA fragmentation (apoptosis) in HL-60 cells: little DNA fragmentation

## CC(=O)N[C@@H](CS)C(=O)O [N-acetylcysteine, reference compound]
CLL cells [3]
  cellular O2^− in 2-ME-treated cells: reduced the accumulation of cellular O2^−
HL-60
  effect on 2-ME-induced apoptosis: 2-ME-induced apoptosis was significantly reduced
CLL cells [2]
  protection from toxic effect of 2-ME: protective effect
CLL cells [2]; listed as NAC
  protection from toxic effect of 2-ME: protected the cells from the toxic effect of 2-ME

## Nc1ccn([C@@H]2O[C@H](CO)[C@@H](O)[C@@H]2O)c(=O)n1 [ara-C, reference compound]
[4]
  apoptosis in primary CML cells: resistant

## Sodium Arsenate [reference compound]
CLL cells [2]; 2-ME-resistant CLL cells
  sensitivity to single agent: insensitive to either drug alone
CLL cells [2]; CLL cells of the two sensitive patients
  sensitivity to single agent: relatively sensitive

## Nc1c(Br)cc(Br)cc1CN[C@H]1CC[C@H](O)CC1 [ambroxol]
HL-60
  effect on 2-ME-induced apoptosis: 2-ME-induced apoptosis was significantly reduced

## C=C(C)[C@H]1Cc2c(ccc3c2O[C@@H]2COc4cc(OC)c(OC)cc4[C@@H]2C3=O)O1 [rotenone, reference compound]
HL-60 cells
  cellular O2^− content: increase of cellular O2^−
[5]
  IC50: 0.8 to 4 nM

## COc1cccc2c1C(=O)c1c(O)c3c(c(O)c1C2=O)C[C@@](O)(C(=O)CO)C[C@@H]3O[C@H]1C[C@H](N)[C@H](O)[C@H](C)O1 [Doxorubicin, 5,12-Naphthacenedione, (8s-cis)-10-[(3-amino-2,3,6-trideoxy-α-L-lyxo-hexopyranosyl)oxy]-7,8,9,10-tetrahydro-6,8,1-trihydroxy-8-(hydroxyacetyl)-1-methoxy-hydrochloride]
[1]
  elimination half-life: about 30 hr
